Laboratory results reported in US9173898B2, “Methods of treating giardiasis” (THE UNITED STATES OF AMERICA, as represented by the …, priority 2010, dated 2015).
Values after ≈ are worked out from the molar mass of the structure shown. Like-named read-outs stand apart in the source and are kept apart here.

Columns and labels:
Giardia WB = experiment: Giardia viability (ATP content) assay in 1536-well format; assay type: cell-based, Giardia lamblia; settings: for IC50: concentration at which 50% of DMSO control ATP levels are detected, 48 hours, 1536-well; for Giardia WB Efficacy / Emax: percent reduction in ATP levels compared with 38.3 mM Mnz at maximal compound concentration; for Emax: 48 h, read-out: Giardia WB Efficacy; for EC50: 1536-well (FIG. 2a), read-out: Calculated EC50
Method: (§1) For the viability assay in 1536-well format, 2 μL media was dispensed per well into 1536-well white solid-bottom plates using a Multidrop Combi dispenser (Thermo Scientific). Subsequently, 23 nL/well compound solutions or DMSO controls were dispensed to the assay plates containing media via a pintool workstation (Kalypsys, San Diego). Trophozoites were chilled on ice to detach from glass tubes, and unless otherwise noted, were diluted to 250,000 trophozoites/mL with ice cold media. The trophozoite suspension was kept on ice and dispensed as 4 μL/well with the Multidrop Combi dispenser. Attachment of trophozoites to dispensing apparatus was avoided with continuous dispensing and icing of the trophozoite suspension. The plates were covered with plastic low-evaporation lids, individually sealed in Type A Bio-Bags and incubated at 37° C. for 48 hours. Following incubation, 4 μL/well of ATPLite reagent was dispensed with the Multidrop Combi dispenser. The assay plates were briefly centrifuged at 1000 RPM and luminescence signal was detected on a ViewLux plate reader (PerkinElmer) after 20 min incubation at room temperature. Signal-to-basal (S/B) ratio, Z′ factor and coefficient of variation (CV) were calculated from 32 wells with 0.38% DMSO (total signal) and 32 well with 38.3 μM Mnz (basal signal).
Assay miniaturization in 1,536-well plate format was undertaken to increase throughput and facilitate screening of large compound libraries. The volume of trophozoites suspension was reduced to 6 μL/well and the ATP detection reagent was reduced to 4 μL/well in the 1536-well assay plates. […] The 100 trophozoites/well density was selected for further experiments to reduce the preparation work of Giardia cultures. Following these conditions, a DMSO test plate was used to assess the statistical parameters of the assay in the 1,536-well plate format.
Using the above established conditions in 1536-well format, each compound of the invention was tested at 5 concentration points, ranging from 61 nM-38.3 μM in a 1:5 dilution ratio (Inglese, J., D. S. Auld, A. Jadhav, R. L. Johnson, A. Simeonov, A. Yasgar, W. Zheng, and C. P. Austin. 2006. Quantitative high-throughput screening: a titration-based approach that efficiently identifies biological activities in large chemical libraries. Proc Natl Acad Sci USA 103:11473-8).

CHO cells [1] = experiment: CHO cell cytotoxicity assay in 1536-well format (ATP content counter-screen); assay type: cell-based, Chinese hamster; settings: concentration at which 50% of DMSO control ATP levels are detected, 48 hours
Method: For the viability assay in 1536-well format, 2 μL media was dispensed per well into 1536-well white solid-bottom plates using Multidrop Combi dispenser. Subsequently, 23 nL/well compound solutions or DMSO controls were dispensed to the assay plates via a pintool workstation. The Chinese hamster ovary (CHO) cells were grown in T225 flasks to 70% confluence under a standard cell culture condition (ATCC), detached with 0.25% Trypsin/EDTA, and seeded at 250 cells/well in 4 μL media (Dulbecco's Modified Eagle Medium, 10% fetal bovine serum, 1× penicillin/streptomycin). The plates were incubated at 37° C. with 5% CO2 and 95% humidity for 48 hours. Subsequently, ATP content was measured following the addition of 4 μL/well of ATPLite reagent and a 20 min incubation on a ViewLux plate reader.
Data from the CHO cell counter-screen underwent the same initial analysis, with the exception that raw luminescence counts were normalized relative to DMSO only wells (0% activity) and 38.3 μM camptothecin treated wells (100% activity).
CHO cells, commonly used in high throughput compound screening, were selected to determine the cytotoxicity of the compounds towards a mammalian cell line.

G. lamblia GS isolate = experiment: ATP content assay against G. lamblia GS isolate; assay type: cell-based, Giardia lamblia
Method: as §1
As a further confirmatory step, some compounds that were commercially available were purchased as powder samples and tested against the G. lamblia GS isolate using both the ATP content and enumeration assays (Table 3).

[2] = test system: Giardia lamblia GS isolate; experiment: Trophozoite enumeration assay; assay type: cell-based; settings: G. lamblia GS isolate, 48 hrs, cell counting in hemocytometer
Method: Giardia lamblia GS isolate was plated into sterile 96-well black clear-bottom assay plates at 10,000 cells/well density and 120 μL/well volume in culture media. Compounds tested were prepared as 50 mM DMSO solutions in a 12 point 1:3 titration series in DMSO, with exceptions being carbadox, Bortezomib and BTO-1, which were used at 10 mM top concentration due to solubility limitations. Compound titration series were added to duplicate assay wells as 0.5 μL/well and the assay plates were incubated anaerobically in Type A Bio-Bag (BD Diagnostics) for 48 hrs at 37° C. Cell density was visually scored in each well and the 6 wells surrounding the visually determined IC50 concentrations were quantitated by cell counting. For enumeration, trophozoites were detached on ice for 30 min and resuspended via pipetting. 75 μL of culture was removed from each well, mixed with 65 μL of 0.4% Trypan Blue and 10 μL of 30% bleach (final concentration of 2% bleach) to immobilize trophozoites. Trophozoites were then counted in a hemocytometer.

CHO cells [3] = experiment: CHO cell cytotoxicity assay in 1536-well format (ATP content counter-screen); assay type: cell-based, Chinese hamster; settings: for CHO Efficacy: percent reduction in ATP levels compared with 38.3 mM camptothecin at maximal compound concentration; for Emax: Cricetulus griseus, CHO, 48 h, percent reduction in ATP levels compared with 38.3 µM camptothecin at maximal compound concentration, read-out: CHO Efficacy
[4] = test system: Giardia lamblia GS isolate; experiment: Minimum Lethal Concentration (MLC) determination; assay type: cell-based; settings: 3 days with compound, then 3 days regrowth without compound, tube without any live organisms
Method: Giardia lamblia GS isolate was used throughout the Minimal Lethal Concentration (MLC) experiments. Organisms were grown and maintained in TYI-S-33 medium supplemented with bile and antibiotics (Keister, 1983). Cidal activity was determined in 96-well culture plates (Corning Incorporated) followed by Giardia trophozoites regrowth in 8 ml tubes (Fisher Scientific). Dry compounds were dissolved in DMSO (Sigma) at stock concentration of 10 mM and then added to the growth media to ensure final DMSO concentration of no more than 0.5%. 100 μl of the compound solutions were placed in the wells by serial dilutions. 10 μl of Giardia trophozoites containing 10000 organisms were then added. Serial dilutions of metronidazole served as the positive control and the DMSO-containing medium served as the negative control. Plates were incubated under anaerobic conditions in sealed bags (Becton Dickinson and Company) at 37° C. for 3 days and surveyed visually under microscope to check survival, mobility and attachment of trophozoites. The plate was chilled on ice for 30 min and the entire contents of 4 wells in the growth/death transition were transferred into the 8 ml tubes containing growth media only (without the compound). After 3 days of incubation at 37° C., tubes were checked under microscope for any surviving trophozoites. MLC was attributed to the tube without any live organisms. See, e.g., Keister, D. B. 1983. Axenic culture of Giardia lamblia in TYI-S-33 medium supplemented with bile. Trans. Soc. Trop. Med. Hyg. 77:487-488.

[5] = test system: G. lamblia WB trophozoite; experiment: Giardia viability (ATP content) assay in 96-well format; assay type: cell-based, Giardia lamblia
Method: Giardia trophozoites were plated at a density of 2500 cells/well in 120 μL media in sterile 96-well black clear-bottom assay plates. Mnz was serially diluted from 100 mM stock solution 1:4 in DMSO and then 0.5 μL/well of Mnz titrations or DMSO control were transferred in duplicates to the assay wells using a multichannel pipette. The assay plates were covered with plastic low-evaporation lids and individually sealed with anaerobic generators (Type A Bio-Bag, BD Diagnostics) to create anaerobic growth environment. The sealed Bio-Bags were incubated at 37° C. for indicated periods. Following incubation, 80 μL/well of the ATPLite reagent (PerkinElmer) was added to the assay plates for one-step lysis and ATP level detection. The plates were centrifuged briefly (1000 RPM, 30 seconds) and incubated at room temperature for 20 min. The luminescent signals of assay plates were measured on a ViewLux plate reader (PerkinElmer). Signal-to-basal (S/B) ratios and Z′ factors were calculated from 8 wells containing 0.42% DMSO (total signal) and 8 wells containing 41.7 μM Mnz (basal signal).
A commercially available ATP detection kit to measure the viability of G. lamblia after compound treatment. […] The DMSO tolerance of trophozoites was assessed in this assay as DMSO is used to dissolve the compounds in the library. […]

[6] = G. lamblia GS isolate, purchased powder samples
[7] = G. lamblia GS isolate, purchased powder samples, read-out: ATP Content IC50
[8] = Giardia duodenalis, G. lamblia GS isolate, purchased powder samples, read-out: ATP Content IC50
[9] = Giardia duodenalis, Table 2, screen, read-out: Giardia GS IC50

Row | Compound | IC50 (Giardia WB) [nM] | Giardia WB Efficacy (Giardia WB) [%] | IC50 (CHO cells [1]) [µM] | ATP Content Efficacy (G. lamblia GS isolate; [6]) [%] | IC50 (G. lamblia GS isolate; [7]) [nM] | IC50 [2] [nM] | CHO Efficacy (CHO cells [3]) [%] | IC50 (G. lamblia GS isolate; [8]) [nM] | IC50 ([2]; Giardia duodenalis) [nM] | MBC ([4]; Giardia duodenalis, 72 h) [µM] | Emax (Giardia WB; Giardia) [%] | IC50 (Giardia WB; Giardia) [nM] | IC50 (CHO cells [1]; Cricetulus griseus, CHO) [µM] | IC50 (G. lamblia GS isolate; [9]) [nM] | Emax (CHO cells [3]) [%] | other results
1 | N#Cc1cc([N+](=O)[O-])c2sc(C(N)=O)[n+]([O-])c2c1 [BTO-1] | 1730 | 72.3 | 68.8 | 99.1 | 2000 | 9300 | 32.2 |  |  |  |  |  |  |  |  | 
2 | CC(C)C[C@H](NC(=O)[C@H](Cc1ccccc1)NC(=O)c1cnccn1)B(O)O [Bortezomib] |  |  |  | 98.5 |  |  |  | 60 | 130 | 0.51 (≈ 0.196 µg/mL) |  |  |  |  |  | 
3 | COC(=O)N/N=C/c1c[n+]([O-])c2ccccc2[n+]1[O-] [Carbadox] |  |  |  | 99.4 |  |  |  | 240 | 290 | 4.6 (≈ 1.21 µg/mL) | 86.6 | 5460 | > 100 | 2830 | 6.3 | 
4 | Nc1ncn([C@H]2C[C@H](O)[C@@H](CO)O2)c(=O)n1 [Decitabine, 5-Aza-2′-deoxycytidine] |  |  |  | 95.1 |  |  |  | 150 | 70 | 2.6 (≈ 0.593 µg/mL) | 81.2 | 970 | 24.4 | 100 | -52.2 | 
5 | CO[C@@H]1[C@H](OC(=O)/C=C/C=C/C=C/C=C/C(=O)O)CC[C@]2(CO2)[C@H]1[C@@]1(C)O[C@@H]1CC=C(C)C [Fumagillin] |  |  |  | 98.9 |  |  |  | 2 | 3 | 0.257 (≈ 0.118 µg/mL) | 83.4 | 10 | > 100 | 2 | -1.9 | 
6 | O=C(Nc1ccccc1)c1cc([N+](=O)[O-])ccc1Cl [GW9662] |  |  |  | 99.2 |  |  |  | 12700 | 32900 | 208 (≈ 57.5 µg/mL) | 86.4 | 6870 | > 100 |  | 8.5 | 
7 | Cc1ncc([N+](=O)[O-])n1CCO [Metronidazole] |  |  |  | 99.7 |  |  |  | 1600 | 2200 | 7.7 (≈ 1.32 µg/mL) |  |  |  |  |  | ATP content relative to DMSO control values ([5]; 41.7 μM Mnz treatment, all time points tested (FIG. 1a)): < 5%; IC50 ([5]; Giardia duodenalis, 96-well format, 48 hr (FIG. 1c), read-out: IC50 of inhibition of the ATP content signal): 2100 nM; EC50 (Giardia WB; Giardia, 100 cells/well Giardia density): 2900 nM; EC50 (Giardia WB; Giardia, 200 cells/well Giardia density): 2900 nM; EC50 (Giardia WB; Giardia, 300 cells/well Giardia density): 2100 nM
8 | O=[N+]([O-])c1ccc([As](=O)(O)O)cc1 [Nitarsone] | 430 | 97.0 | > 100 | 99.6 | 900 | 1200 | −13.5 |  |  |  |  |  |  |  |  | IC50 (G. lamblia GS isolate; Table 2, screen, read-out: Giardia GS IC50): 1260 nM; MBC [4]: 2.6 µM
9 | hydroxocobalamin acetate [Hydroxocobalam in Acetate] | 13700 | 92.2 | > 100 | 98.4 | 78300 | 54200 | 16.1 |  |  |  |  |  |  |  |  | MBC [4]: >208 µM
